Test results as given in US7713934B2, “Thrombin peptide derivatives” (The Board of Regents, The University of Texas System, priority 2002, dated 2010).

Assays:
NIL cells = conditions: increasing concentrations, quiescent NIL cells, 2 and 4 nM alpha-thrombin; FIG. 6 of U.S. Pat. No. 5,500,412; cited from earlier work
thrombin receptors = experiment: Peptide competition for [125I]-alpha-thrombin binding to ME cells; conditions: for Concentration Required for 30% Inhibition: [125I]-alpha-thrombin binding to ME cells; for fold higher concentration than p508-530 required for 30% inhibition of [125I]-alpha-thrombin binding: relative to p508-530
Source text: Thrombin peptide derivatives are believed to activate cells by binding to a high-affinity cell-surface thrombin receptor known as the non-proteolytically-activated thrombin receptor (hereinafter “NPAR”) (R. Horvat, et. al., J. Cell Sci. 108, 1155-1164 1995). Compounds which stimulate NPAR are said to be thrombin receptor agonists. NPAR activation can be assayed based on the ability of molecules to stimulate cell proliferation when added to fibroblasts in the presence of submitogenic concentrations of thrombin or molecules that activate protein kinase C or compete with ^125I-thrombin for high affinity binding17 to thrombin receptors, as disclosed in U.S. Pat. Nos. 5,352,664 and 5,500,412 and in Glenn et al., J. Peptide Research 1:65 (1988).
To further identify regions of thrombin involved in high-affinity binding and generation of mitogenic signals, two peptides representing specific domains within p508-530 were tested. The first peptide represented residues 519 to 530 of the B-chain region of human prothrombin, a region of thrombin that is highly conserved among serine proteases. The second peptide represented residues 517 to 520 of prothrombin, a region of thrombin homologous to the fibronectin cell binding domain.
Because p517-520 is homologous to the fibronectin cell binding domain, a peptide having the sequence Arg-Gly-[…]-Ser (SEQ ID NO:18; the sequence of the fibronectin specific peptide) was also tested for its ability to compete for [^125I]-alpha-thrombin binding.

[1] = system: full-thickness, 2 cm-diameter excisions on the dorsum; experiment: Wound closure, full-thickness excisions in rats (Example 1, TP508-Ala); type: in vivo, male Sprague-Dawley rats; conditions: for wound area smaller than controls: 0.1 μg per wound, topical; for wound healing activity compared with TP508: Example 1, 0.1 μg per wound
Description: (§1) Two, full-thickness, 2 cm-diameter excisions were created on the dorsum of male Sprague-Dawley rats. […] Wound size was determined on post-wounding days 3, 7, and 10 by tracing the perimeter of the wound onto an acetate sheet and using digital analysis to compute the surface area of each wound.
Each group contained 6 rats.
(§2) Saline was used as the vehicle for the experiment. […] The working solution was maintained on ice throughout the experiment.
(§3) The working solution was maintained on ice throughout the experiment.
(§4) On post-wounding days 3, 7, and 10, the wounds were evaluated by tracing the wound perimeter onto a flexible acetate sheet, then determining wound area with digital analysis software.
Each data point represents the mean and standard error of the mean of 12 wounds from 6 rats. Statistical comparisons between groups were made using a repeated measures analysis of variance; Fisher's LSD was used for post hoc testing between groups.

[2] = Dimer formation / stability in saline solution by HPLC; type: physicochemical; conditions: 5 mg/mL, 4° C.
Source text: Over a time period of 6 months, triplicate samples were taken at intervals from the solution.
The area percent of each HPLC peak was plotted in FIG. 3. The peak area percent corresponds directly to the percent of material in solution.
Over a time period of 1 month, triplicate samples were taken at intervals from the solution. […] The area percent of each HPLC peak was plotted in FIG. 4. The peak area percent corresponds directly to the percent of material in solution.
Over a time period of 1 month, triplicate samples were taken at intervals from the solution. […] The area percent of each HPLC peak was plotted in FIG. 5. The peak area percent corresponds directly to the percent of material in solution.

[3] = system: full-thickness, 2 cm-diameter excisions on the dorsum; experiment: Wound closure, full-thickness excisions in rats (Example 2, TP508-Ser); type: in vivo, male Sprague-Dawley rats; conditions: for wound area reduced: 0.1 μg per wound, topical; for wound healing activity compared with TP508: Example 2, 0.1 μg per wound
Description: as §1
Each group contained 8 rats.
as §2, §3, §4
Each data point represents the mean and standard error of the mean of 16 wounds from 8 rats. Statistical comparisons between groups were made using a repeated measures analysis of variance; Fisher's LSD was used for post hoc testing between groups.

Question: With “DACEGDSGGPFV (Thrombin Peptide Derivative) [p519-530]” as the substance, how does the “effect on DNA synthesis” value (NIL cells) read?
Answer: Its value is “enhanced DNA synthesis”.

Question: What about the “Concentration Required for 30% Inhibition” value (thrombin receptors) of the same substance?
Answer: Its value is 200 nM.

Question: And the “Maximal % Inhibition” value (thrombin receptors; at 800 nM, ME cells)?
Answer: The value was 51%.

Question: And the “fold higher concentration than p508-530 required for 30% inhibition of [125I]-alpha-thrombin binding” value (thrombin receptors)?
Answer: Its value is 33 fold.

Question: With “H-Ala-Gly-Tyr-Lys-Pro-Asp-Glu-Gly-Lys-Arg -Gly-Asp-Ala-Ala-Glu-Gly-Asp-Ser-Gly-Gly-Pro-Phe-Val-NH2 (H-AGYKPDEGKRGDAAEGDSGGPFV-NH2) [TP508-Ala]” as the substance, how does the “wound area smaller than controls” value ([1]; post-wounding Day 7) read?
Answer: Its value is 18.7%.

Question: What about the “wound area smaller than controls” value ([1]; post-wounding Day 10) of the same substance?
Answer: Its value is 25.1%.

Question: And the “wound healing activity compared with TP508” value [1]?
Answer: Its value is “equivalent to TP508 in efficacy and potency”.

Question: What about the “wound healing activity compared with TP508” value ([1]; listed as TP508 Cys→Ala) of the same substance?
Answer: Its value is “about the same level of activity toward the thrombin receptor as TP508”.

Question: What about the “HPLC peak area of monomer / peptide over time” value ([2]; 1 month) of the same substance?
Answer: The value was “no decrease over time”.

Question: And the conversion to dimer ([2]; 1 month)?
Answer: The conversion to dimer was “does not convert to dimer”.

Question: What about the conversion to dimer ([2]; 6 months) of the same substance?
Answer: Its conversion to dimer is “no dimerization”.

Question: Which wound area reduced ([3]; post-wounding Day 7) does the source give for “H-Ala-Gly-Tyr-Lys-Pro-Asp-Glu-Gly -Lys-Arg-Gly-Asp-Ala-Ser-Glu-Gly-Asp-Ser-Gly-Gly-Pro-Phe-Val-NH2 (H-AGYKPDEGKRGDASEGDSGGPFV-NH2) [TP508-Ser]” here?
Answer: The wound area reduced was 18.2%.

Question: And the wound area reduced ([3]; post-wounding Day 10)?
Answer: The wound area reduced was 43.3%.

Question: And the “wound healing activity compared with TP508” value [3]?
Answer: Its value is “equivalent to TP508 in efficacy and potency”.

Question: What about the “wound healing activity compared with TP508” value ([3]; listed as TP508 Cys→Ser) of the same substance?
Answer: Its value is “about the same level of activity toward the thrombin receptor as TP508”.

Question: Which “effect on DNA synthesis” value (NIL cells) does the source give for RGDA (Thrombin Peptide) [p517-520] here?
Answer: Its value is “inhibited DNA synthesis”.

Question: What about the “Concentration Required for 30% Inhibition” value (thrombin receptors) of the same substance?
Answer: The value was 300 nM.

Question: And the “fold higher concentration than p508-530 required for 30% inhibition of [125I]-alpha-thrombin binding” value (thrombin receptors)?
Answer: The value was 50 fold.

Question: Which “competition with [125I]-alpha-thrombin for binding” value (thrombin receptors; at a concentration of 1.3 μM) does the source give for “Arg-Gly-Ala-Ser (RGAS; Fibronectin Specific Peptide)” here?
Answer: Its value is “did not compete”.
